According to ChEMBL document CHEMBL1201862, “PubChem BioAssay data set” (2004):
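Briefly, cells in 96-well plates were exposed to five compound concentrations for 48 h, and endpoints were estimated by linear interpolation. Abbreviation: GI50, concentration required for 50% inhibition of growth.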 Active and inactive are the calls of the source. Cut-off read from the data, not from the text of the source: active = GI50 up to about 1.1 µM and inactive = higher.

Columns and labels:
Assay in all cases: NCI-60 cell line screen, 48 h
[1] = system: K562
[2] = system: SF-295
[3] = system: MDA-N
[4] = system: IGROV-1
[5] = system: SNB-75
[6] = system: SN12C
[7] = system: NCI-H226
[8] = system: SNB-19
[9] = system: CAKI-1
[10] = system: SK-MEL-2
[11] = system: A549
[12] = system: HL-60
[13] = system: MDA-MB-435
[14] = system: 786-0
[15] = system: SR
[16] = system: SF-539
[17] = system: M14
[18] = system: HOP-92
[19] = system: Hs-578T
[20] = system: T47D

SMILES: CCCC(=O)Nc1cc(/C=C/C(=O)N2CC(CCl)c3c2cc(O)c2[nH]cc(C)c32)n(C)c1 (stereo not given)
- GI50 [1]: 3.79e-05 µM (active)
- GI50 [2]: < 2.5e-05 µM (active)
- GI50 [3]: < 2.5e-05 µM (active)
- GI50 [4]: < 2.5e-05 µM (active)
- GI50 [5]: < 2.5e-05 µM (active)
- GI50 [6]: < 2.5e-05 µM (active)
- GI50 [7]: < 2.5e-05 µM (active)
- GI50 [8]: < 2.5e-05 µM (active)
- GI50 [9]: < 2.5e-05 µM (active)
- GI50 [10]: < 2.5e-05 µM (active)
- GI50 [11]: < 2.5e-05 µM (active)
- GI50 [12]: < 2.5e-05 µM (active)
- GI50 [13]: < 2.5e-05 µM (active)
- GI50 [14]: < 2.5e-05 µM (active)
- GI50 [15]: < 2.5e-05 µM (active)
- GI50 [16]: < 2.5e-05 µM (active)
- GI50 [17]: < 2.5e-05 µM (active)
- GI50 [18]: < 2.5e-05 µM (active)
- GI50 [19]: < 2.5e-05 µM (active)
- GI50 [20]: < 2.5e-05 µM (active)

SMILES: CCN(CC)CCCNc1c2cc(OC)ccc2nc2cccc([N+](=O)[O-])c12
- GI50 [1]: 0.00643 µM (active)
- GI50 [2]: 0.147 µM (active)
- GI50 [3]: 0.129 µM (active)
- GI50 [4]: 0.102 µM (active)
- GI50 [5]: 0.151 µM (active)
- GI50 [6]: 0.11 µM (active)
- GI50 [7]: 0.204 µM (active)
- GI50 [8]: 0.286 µM (active)
- GI50 [9]: 0.21 µM (active)
- GI50 [10]: 0.101 µM (active)
- GI50 [11]: 0.065 µM (active)
- GI50 [12]: 0.158 µM (active)
- GI50 [13]: 0.0995 µM (active)
- GI50 [14]: 0.071 µM (active)
- GI50 [15]: 0.00612 µM (active)
- GI50 [16]: 0.141 µM (active)
- GI50 [17]: 0.0938 µM (active)
- GI50 [18]: 0.0484 µM (active)
- GI50 [19]: 0.138 µM (active)
- GI50 [20]: 0.151 µM (active)

SMILES: CC(=O)C1COC(O)C1C (stereo not given)
- GI50 [1]: 26.5 µM (inactive)
- GI50 [2]: 26.1 µM (inactive)
- GI50 [3]: 21.3 µM (inactive)
- GI50 [4]: 17.2 µM (inactive)
- GI50 [5]: 23.3 µM (inactive)
- GI50 [6]: 20.7 µM (inactive)
- GI50 [7]: 21.4 µM (inactive)
- GI50 [8]: 31.1 µM (inactive)
- GI50 [9]: 22.8 µM (inactive)
- GI50 [10]: 15.3 µM (inactive)
- GI50 [11]: 53.8 µM (inactive)
- GI50 [12]: 12.4 µM (inactive)
- GI50 [13]: 16.1 µM (inactive)
- GI50 [14]: 21.3 µM (inactive)
- GI50 [15]: 11.5 µM (inactive)
- GI50 [16]: 17.5 µM (inactive)
- GI50 [17]: 23.9 µM (inactive)
- GI50 [18]: 27.2 µM (inactive)
- GI50 [19]: 24.1 µM (inactive)
- GI50 [20]: 35.2 µM (inactive)

SMILES: Oc1cc(O)c2c(c1)OC(c1ccc(O)c(O)c1)C(OC1(c3cc(O)c(O)c(O)c3)Oc3cc(O)cc(O)c3C(O)C1O)C2 (stereo not given)
- GI50 [1]: 21.1 µM (inactive)
- GI50 [2]: 33.1 µM (inactive)
- GI50 [3]: 20.3 µM (inactive)
- GI50 [4]: 30.7 µM (inactive)
- GI50 [5]: 26.4 µM (inactive)
- GI50 [6]: 20.8 µM (inactive)
- GI50 [7]: 21.1 µM (inactive)
- GI50 [8]: 55.1 µM (inactive)
- GI50 [9]: 29.8 µM (inactive)
- GI50 [10]: 24.5 µM (inactive)
- GI50 [11]: 27.7 µM (inactive)
- GI50 [12]: 21.7 µM (inactive)
- GI50 [13]: 15.7 µM (inactive)
- GI50 [14]: 25.7 µM (inactive)
- GI50 [15]: 29.2 µM (inactive)
- GI50 [16]: 32.1 µM (inactive)
- GI50 [17]: 24.7 µM (inactive)
- GI50 [18]: 29.6 µM (inactive)
- GI50 [19]: 36.6 µM (inactive)
- GI50 [20]: 37.6 µM (inactive)

SMILES: Oc1c(Br)cc(/C=C/c2cccc(/C=C/c3cc(Br)c(O)c(Br)c3)n2)cc1Br
- GI50 [1]: 3.3 µM (inactive)
- GI50 [2]: 7.87 µM (inactive)
- GI50 [3]: 18.8 µM (inactive)
- GI50 [4]: 13.4 µM (inactive)
- GI50 [5]: 4.34 µM (inactive)
- GI50 [6]: 9.68 µM (inactive)
- GI50 [8]: 9.98 µM (inactive)
- GI50 [9]: 11.5 µM (inactive)
- GI50 [10]: 4.89 µM (inactive)
- GI50 [11]: 3.72 µM (inactive)
- GI50 [12]: 2.03 µM (inactive)
- GI50 [13]: 13.5 µM (inactive)
- GI50 [14]: 14.8 µM (inactive)
- GI50 [15]: 5.15 µM (inactive)
- GI50 [16]: 13.7 µM (inactive)
- GI50 [17]: 13.8 µM (inactive)
- GI50 [18]: 12.1 µM (inactive)
- GI50 [19]: 17.5 µM (inactive)
- GI50 [20]: 5.89 µM (inactive)

SMILES: CC/C(Cl)=N\OC(=O)Nc1ccc(F)c(Cl)c1
- GI50 [1]: 1.84 µM (inactive)
- GI50 [2]: 18.2 µM (inactive)
- GI50 [3]: 18.2 µM (inactive)
- GI50 [4]: 16.3 µM (inactive)
- GI50 [5]: 12.2 µM (inactive)
- GI50 [6]: 18 µM (inactive)
- GI50 [7]: 24.4 µM (inactive)
- GI50 [8]: 14.4 µM (inactive)
- GI50 [9]: 5.21 µM (inactive)
- GI50 [10]: 17.3 µM (inactive)
- GI50 [11]: 21.3 µM (inactive)
- GI50 [12]: 1.83 µM (inactive)
- GI50 [13]: 21.2 µM (inactive)
- GI50 [14]: 7.1 µM (inactive)
- GI50 [15]: 4.99 µM (inactive)
- GI50 [16]: 19.8 µM (inactive)
- GI50 [17]: 2.38 µM (inactive)
- GI50 [18]: 4.38 µM (inactive)
- GI50 [19]: 39.4 µM (inactive)
- GI50 [20]: 7.89 µM (inactive)

SMILES: CCOC(=O)C1=NN(c2ccc(C)cc2)C2(c3ccccc3)C=C(c3ccccc3)N(C)CCN12 (stereo not given)
- GI50 [1]: 71 µM (inactive)
- GI50 [2]: > 100 µM (inactive)
- GI50 [3]: > 100 µM (inactive)
- GI50 [4]: > 100 µM (inactive)
- GI50 [5]: > 100 µM (inactive)
- GI50 [6]: > 100 µM (inactive)
- GI50 [7]: > 100 µM (inactive)
- GI50 [8]: > 100 µM (inactive)
- GI50 [9]: > 100 µM (inactive)
- GI50 [10]: > 100 µM (inactive)
- GI50 [11]: > 100 µM (inactive)
- GI50 [12]: 30.7 µM (inactive)
- GI50 [13]: > 100 µM (inactive)
- GI50 [14]: > 100 µM (inactive)
- GI50 [15]: 35.2 µM (inactive)
- GI50 [16]: > 100 µM (inactive)
- GI50 [17]: > 100 µM (inactive)
- GI50 [18]: > 100 µM (inactive)
- GI50 [19]: > 100 µM (inactive)
- GI50 [20]: > 100 µM (inactive)

SMILES: CCCCOCOc1ccccc1P1(=O)COc2ccccc2OC1
- GI50 [1]: 52.2 µM (inactive)
- GI50 [2]: 60.5 µM (inactive)
- GI50 [3]: > 100 µM (inactive)
- GI50 [4]: > 100 µM (inactive)
- GI50 [5]: > 100 µM (inactive)
- GI50 [6]: > 100 µM (inactive)
- GI50 [8]: > 100 µM (inactive)
- GI50 [9]: > 100 µM (inactive)
- GI50 [10]: > 100 µM (inactive)
- GI50 [11]: 88.5 µM (inactive)
- GI50 [12]: 34.7 µM (inactive)
- GI50 [13]: > 100 µM (inactive)
- GI50 [14]: > 100 µM (inactive)
- GI50 [15]: 37.1 µM (inactive)
- GI50 [16]: > 100 µM (inactive)
- GI50 [17]: 83.9 µM (inactive)
- GI50 [18]: 74.1 µM (inactive)
- GI50 [19]: 54 µM (inactive)
- GI50 [20]: 45.4 µM (inactive)

SMILES: Cc1nnc(CC#N)n1NC(=O)CC#N
- GI50 [1]: > 100 µM (inactive)
- GI50 [2]: > 100 µM (inactive)
- GI50 [3]: > 100 µM (inactive)
- GI50 [4]: > 100 µM (inactive)
- GI50 [5]: > 100 µM (inactive)
- GI50 [6]: > 100 µM (inactive)
- GI50 [8]: > 100 µM (inactive)
- GI50 [9]: > 100 µM (inactive)
- GI50 [10]: > 100 µM (inactive)
- GI50 [11]: > 100 µM (inactive)
- GI50 [12]: > 100 µM (inactive)
- GI50 [13]: > 100 µM (inactive)
- GI50 [14]: > 100 µM (inactive)
- GI50 [15]: > 100 µM (inactive)
- GI50 [16]: > 100 µM (inactive)
- GI50 [17]: > 100 µM (inactive)
- GI50 [18]: > 100 µM (inactive)
- GI50 [19]: > 100 µM (inactive)
- GI50 [20]: > 100 µM (inactive)

SMILES: S=C=Nc1ccc(CSc2nc3ccccc3[nH]2)cc1
- GI50 [1]: 39.4 µM (inactive)
- GI50 [2]: 17.3 µM (inactive)
- GI50 [3]: 15.9 µM (inactive)
- GI50 [4]: 18.2 µM (inactive)
- GI50 [5]: 12.9 µM (inactive)
- GI50 [6]: 17.5 µM (inactive)
- GI50 [8]: 25.9 µM (inactive)
- GI50 [9]: 17.7 µM (inactive)
- GI50 [10]: 18.9 µM (inactive)
- GI50 [11]: 17.1 µM (inactive)
- GI50 [12]: 36.5 µM (inactive)
- GI50 [13]: 17.5 µM (inactive)
- GI50 [14]: 19.9 µM (inactive)
- GI50 [15]: 20.7 µM (inactive)
- GI50 [16]: 18.8 µM (inactive)
- GI50 [18]: 16.8 µM (inactive)
- GI50 [19]: 41.6 µM (inactive)
- GI50 [20]: 15.2 µM (inactive)
